The values below come from patent EP3789378A1, “PIPERIDINES OR PIPERIDONES SUBSTITUTED WITH UREA AND HETEROARYL” (Grünenthal GmbH, priority 2019, dated 2021).

Structures are written as SMILES. Structures can show the parent of a compound that is named as a salt.

The target of the first test is T1, h FPR2 (Homo sapiens, UniProt P25090).
T1 construct: expressed in transfected cells
T1 sequence (P25090 1-351): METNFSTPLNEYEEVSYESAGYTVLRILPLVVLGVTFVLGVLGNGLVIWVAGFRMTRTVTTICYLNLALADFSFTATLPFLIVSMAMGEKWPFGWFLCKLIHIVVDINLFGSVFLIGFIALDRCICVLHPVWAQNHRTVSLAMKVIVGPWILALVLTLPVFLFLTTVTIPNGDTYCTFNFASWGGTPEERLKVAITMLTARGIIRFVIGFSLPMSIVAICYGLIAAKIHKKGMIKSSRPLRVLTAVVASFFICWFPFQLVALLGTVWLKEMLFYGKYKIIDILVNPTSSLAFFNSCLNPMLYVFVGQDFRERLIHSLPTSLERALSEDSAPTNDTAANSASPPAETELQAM
Briefly: Agonistic activity in hFPR2-Aq-CHO cells (FLIPR Calcium 5 fluorescence assay). It counts as cell-based. The settings on record: 11 point half log dilution, final assay concentration from 10µM. The method in brief:
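EC50 reflects the compound-evoked rise in Calcium 5 fluorescence over basal, recorded for 5 min on FLIPR and compared with no-compound wells. Dye-loaded hFPR2-Aq-CHO cells received half-log dilutions from 10 µM to 100 pM final in pH 7.4 HBSS buffer.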
Usually EC50 stands for the concentration giving half of the maximal effect. Regarding `O=C(Nc1ccc(Cl)cc1)N[C@@H]1CCN(CC2CCNCC2)C[C@H]1c1ccc(Cl)s1` (single isomer, unassigned) [Ex-84, trans-1-(4-chlorophenyl)-3-[3-(5-chlorothiophen-2-yl)-1-(piperidin-4-ylmethyl)piperidin-4-yl]urea dihydrochloride], the EC50 was 33 nM.
With `COc1ccc([C@@H]2CN(c3ccnc(C)n3)CC[C@H]2NC(=O)Nc2ccc(Cl)cc2)nc1` (relative stereo) [Ex-210, trans-1-(4-chloro-phenyl)-3-[5-methoxy-1'-(2-methyl-pyrimidin-4-yl)-1',2',3',4',5',6'-hexahydro-[2,3']bipyridinyl-4'-yl]-urea], the EC50 amounted to 5 nM.
On to `COc1ccc([C@@H]2CN(CC(F)F)CC[C@H]2NC(=O)Nc2ccccc2)nc1` (relative stereo) [Ex-150, trans-1-[1-(2,2-Difluoro-ethyl)-3-(5-methoxy-pyridin-2-yl)-piperidin-4-yl]-3-phenyl-urea], for which the EC50 worked out at 3 nM.
In the case of `Cc1cc(NC(=O)N[C@@H]2CCN(c3cccnn3)C[C@H]2c2ccc(Cl)cn2)sn1` (relative stereo) [Ex-32, trans-1-(5-chloro-1'-pyridazin-3-yl-1',2',3',4',5',6'-hexahydro-[2,3']bipyridinyl-4'-yl)-3-(3-methyl-isothiazol-5-yl)-urea], the EC50 came out at 3 nM.
Take `COc1cnc([C@@H]2CN(CCO)CC[C@H]2NC(=O)Nc2ccc(Cl)cc2)c(F)c1` (relative stereo) [Ex-199, trans-1-(4-chloro-phenyl)-3-[3-fluoro-1'-(2-hydroxy-ethyl)-5-methoxy-1',2',3',4',5',6'-hexahydro-[2,3']bipyridinyl-4'-yl]-urea]: the EC50 was determined as 0.5 nM.
In the case of `COc1ccc([C@@H]2CN(c3ccncn3)CC[C@H]2NC(=O)Nc2cc(C)ns2)nc1` (relative stereo) [Ex-8, trans-1-(5-methoxy-1'-pyrimidin-4-yl-1',2',3',4',5',6'-hexahydro-[2,3']bipyridinyl-4'-yl)-3-(3-methyl-isothiazol-5-yl)-urea], the EC50 came out at 1 nM.
`COc1ccc([C@@H]2CN(c3ccc(F)cc3)CC[C@H]2NC(=O)Nc2cc(C)ns2)cn1` (relative stereo) [Ex-3, trans-1-[1-(4-fluoro-phenyl)-6'-methoxy-1,2,3,4,5,6-hexahydro-[3,3']bipyridinyl-4-yl]-3-(3-methyl-isothiazol-5-yl)-urea]: the EC50 stood at 10 nM.
For `COc1ccc([C@@H]2CN(Cc3ccn(C)n3)CC[C@H]2NC(=O)Nc2ccc(Cl)cc2)nc1` (single isomer, unassigned) [Ex-39, trans-1-(4-chlorophenyl)-3-[3-(5-methoxypyridin-2-yl)-1-[(1-methyl-1H-pyrazol-3-yl)methyl]piperidin-4-yl]urea], the concentration giving a half-maximal response (EC50) turned out to be 0.3 nM.
`COc1ccc([C@@H]2CNCC[C@H]2NC(=O)Nc2ccc(Cl)cc2)nc1` (single isomer, unassigned) [Ex-168, trans-1-(4-Chlorophenyl)-3-[3-(5-methoxy-pyridin-2-yl)-piperidin-4-yl]-urea]: the EC50 came to 0.9 nM.
The same measure, in the same setting: the same measure for `COc1ccc([C@@H]2CN(Cc3ccc(C4CC4)nc3)CC[C@H]2NC(=O)Nc2ccc(Cl)cc2)nc1` (relative stereo) [Ex-65, trans-1-(4-chlorophenyl)-3-[1-[(6-cyclopropylpyridin-3-yl)methyl]-3-(5-methoxypyridin-2-yl)piperidin-4-yl]urea]: 0.09 nM; for `COCCCN1CC[C@@H](NC(=O)Nc2ccc(Cl)cc2)[C@H](c2ncc(OC)cc2F)C1` (relative stereo) [Ex-193, trans-1-(4-chlorophenyl)-3-[3-fluoro-5-methoxy-1'-(3-methoxy-propyl)-1',2',3',4',5',6'-hexahydro-[2,3']bipyridinyl-4'-yl]-urea]: 1 nM; for `COc1ccc([C@@H]2CN(c3ccc(F)cc3)CC[C@H]2NC(=O)Nc2cc(C)ns2)nc1` (relative stereo) [Ex-20, trans-1-[1'-(4-fluoro-phenyl)-5-methoxy-1',2',3',4',5',6'-hexahydro-[2,3']bipyridinyl-4'-yl]-3-(3-methyl-isothiazol-5-yl)-urea]: 1 nM.
As to `COc1ccc([C@@H]2CN(c3ccncn3)CC[C@H]2NC(=O)Nc2cc(C)ns2)cn1` (relative stereo) [Ex-4, trans-1-(6'-methoxy-1-pyrimidin-4-yl-1,2,3,4,5,6-hexahydro-[3,3']bipyridinyl-4-yl)-3-(3-methyl-isothiazol-5-yl)-urea], the EC50 was found to be 11 nM.
Turning to `COc1ccc([C@@H]2CN(CC(C)(C)O)CC[C@H]2NC(=O)Nc2ccc(Cl)cc2)nc1` (relative stereo) [Ex-120, trans-1-(4-Chlorophenyl)-3-[1-(2-hydroxy-2-methyl-propyl)-3-(5-methoxy-pyridin-2-yl)-piperidin-4-yl]-urea], the EC50 stood at 0.7 nM.
Same read-out and setting: the same measure for `O=C(Nc1ccc(Cl)cc1)N[C@@H]1CCN(Cc2cncc(F)c2)C[C@H]1c1ccc(Cl)s1` (relative stereo) [Ex-70, trans-1-(4-chlorophenyl)-3-(3-(5-chlorothiophen-2-yl)-1-((5-fluoropyridin-3-yl)methyl)piperidin-4-yl)urea]: 2 nM; for `COc1ccc([C@@H]2CN(CCC(C)(C)C#N)CC[C@H]2NC(=O)Nc2ccc(Cl)cc2)nc1` (relative stereo) [Ex-144, trans-1-(4-Chlorophenyl)-3-[1-(3-cyano-3-methyl-butyl)-3-(5-methoxy-pyridin-2-yl)-piperidin-4-yl]-urea]: 1 nM; for `CS(=O)(=O)n1ccc(CN2CC[C@@H](NC(=O)Nc3ccccc3)[C@H](c3ccc(Cl)s3)C2)n1` (single isomer, unassigned) [Ex-56, trans-1-(-3-(5-chlorothiophen-2-yl)-1-((1-(methylsulfonyl)-1H-pyrazol-3-yl)methyl)piperidin-4-yl)-3-phenylurea]: 0.9 nM.

The test is the same for the next values; noted with them: agonistic response at 0.1µM.
For `O=C(Nc1ccc(Cl)cc1)N[C@@H]1CCN(C(=O)CCO)C[C@H]1c1ccc(Cl)s1` (relative stereo) [Ex-131, trans-1-(4-Chlorophenyl)-3-[3-(5-chloro-thiophen-2-yl)-1-(3-hydroxy-propanoyl)-piperidin-4-yl]-urea], the activation at 0.1 µM worked out at 38%.
Consider `COc1ccc([C@@H]2CN(CC(C)(C)O)CC[C@H]2NC(=O)Nc2cc(C)ns2)nc1` (relative stereo) [Ex-176, trans-1-[1-(2-Hydroxy-2-methyl-propyl)-3-(5-methoxy-pyridin-2-yl)-piperidin-4-yl]-3-(3-methyl-isothiazol-5-yl)-urea], for which the activation at 0.1 µM amounted to 5%.
On the same count and under the same terms, the same measure for `COc1ccc([C@@H]2CN(CC3CC3)CC[C@H]2NC(=O)Nc2ccc(Cl)cc2)nc1` (relative stereo) [Ex-173, trans-1-(4-Chlorophenyl)-3-[1-(cyclopropyl-methyl)-3-(5-methoxy-pyridin-2-yl)-piperidin-4-yl]-urea]: 44%.
Take `COc1ccc([C@@H]2CN(CC3CCOCC3)CC[C@H]2NC(=O)Nc2ccc(Cl)cc2)nc1` (relative stereo) [Ex-50, trans-1-(4-chlorophenyl)-3-[(5-methoxypyridin-2-yl)-1-(oxan-4-ylmethyl)piperidin-4-yl]urea]: the “h FPR2 FLIPR % @0.1µM” value is reported as 40%@0.1µM.
